Data on 30 compounds can be found in patent publication US9944647B2 (Incyte Corporation, priority 2015, dated 2018).

Bounds are passed on as bounds.

In the experiment the target is LSD-1 enzyme (Homo sapiens (Human), UniProt O60341). The experiment is described as follows: LANCE LSD1/KDM1A demethylase assay (LSD1 histone demethylase biochemical assay). The settings on record: 1 nM LSD-1 enzyme, 1 hour preincubation at 25° C., Biotin-labeled Histone H3 peptide substrate.
`CCN1CCC[C@@H](COc2nc(-c3ccc(C#N)cc3)c(-c3ccc(C)c(CO)c3)c3nccn23)C1` [Example 99, 4-{5-{[(3R)-1-ethylpiperidin-3-yl]methoxy}-8-[3-(hydroxymethyl)-4-methylphenyl]imidazo[1,2-c]pyrimidin-7-yl}benzonitrile] displayed an IC50 not above 50 nM. As for `Cc1ccc(-c2c(-c3ccc(C#N)cc3)nc(N3CC[C@@H](N(C)C)C3)n3ccnc23)cc1CO` [Example 100, 4-{5-[(3R)-3-(dimethylamino)pyrrolidin-1-yl]-8-[3-(hydroxymethyl)-4-methylphenyl]imidazo[1,2-c]pyrimidin-7-yl}benzonitrile], the IC50 is not above 50 nM. The same measure for `CN1CCC[C@@H](COc2nc(-c3ccc(C#N)cc3)c(-c3ccc(CO)c(Cl)c3)c3nccn23)C1` [Example 101, 4-(8-[3-chloro-4-(hydroxymethyl)phenyl]-5-{[(3R)-1-methylpiperidin-3-yl]methoxy}imidazo[1,2-c]pyrimidin-7-yl)benzonitrile]: not above 50 nM. Take `Cc1ccc(-c2c(-c3ccc(C#N)cc3)nc(N3CCC(N(C)C)CC3)n3ccnc23)cc1CO` [Example 102, 4-{5-[4-(dimethylamino)piperidin-1-yl]-8-[3-(hydroxymethyl)-4-methylphenyl]imidazo[1,2-c]pyrimidin-7-yl}benzonitrile]: the IC50 was not above 50 nM.

As for `Cc1ncc(-c2c(-c3ccc(C#N)cc3)nc(N3CCC(N(C)C)CC3)n3ccnc23)cc1Cl` [Example 103, 4-{8-(5-chloro-6-methylpyridin-3-yl)-5-[4-(dimethylamino)piperidin-1-yl]imidazo[1,2-c]pyrimidin-7-yl}benzonitrile], the IC50 is not above 50 nM. In turn, `COc1ncc(-c2c(-c3ccc(C#N)cc3)nc(N3CCC(N(C)C)CC3)n3ccnc23)cc1Cl` [Example 104, 4-{8-(5-chloro-6-methoxypyridin-3-yl)-5-[4-(dimethylamino)piperidin-1-yl]imidazo[1,2-c]pyrimidin-7-yl}benzonitrile] yielded an IC50 not above 50 nM. `COc1ncc(-c2c(-c3ccc(C#N)cc3)nc(N3CCC(N(C)C)CC3)n3ccnc23)cc1C#N` [Example 105, 5-{7-(4-cyanophenyl)-5-[4-(dimethylamino)piperidin-1-yl]imidazo[1,2-c]pyrimidin-8-yl}-2-methoxynicotinonitrile] registered an IC50 not above 50 nM.

The compound `CCc1ccc(-c2c(-c3ccc(C#N)cc3)nc(OC[C@@H]3CCCN(C)C3)n3ccnc23)cn1` [Example 107, 4-(8-(6-ethylpyridin-3-yl)-5-{[(3R)-1-methylpiperidin-3-yl]methoxy}imidazo[1,2-c]pyrimidin-7-yl)benzonitrile] returned an IC50 of 50 to 500 nM. In turn, `CC(C)c1ccc(-c2c(-c3ccc(C#N)cc3)nc(OC[C@@H]3CCCN(C)C3)n3ccnc23)cn1` [Example 108, 4-(8-(6-isopropylpyridin-3-yl)-5-{[(3R)-1-methylpiperidin-3-yl]methoxy}imidazo[1,2-c]pyrimidin-7-yl)benzonitrile] registered an IC50 of 50 to 500 nM. Then `CCN1CCC[C@@H](COc2nc(-c3ccc(C#N)cc3)c(-c3cc(C)c(CO)c(F)c3)c3nccn23)C1` [Example 109, 4-{5-{[(3R)-1-ethylpiperidin-3-yl]methoxy}-8-[3-fluoro-4-(hydroxymethyl)-5-methylphenyl]imidazo[1,2-c]pyrimidin-7-yl}benzonitrile], with not above 50 nM; and `Cc1cc(-c2c(-c3ccc(C#N)cc3)nc(N3CC[C@@H](N(C)C)C3)n3ccnc23)cc(F)c1CO` [Example 110, 4-{5-[(3R)-3-(dimethylamino)pyrrolidin-1-yl]-8-[3-fluoro-4-(hydroxymethyl)-5-methylphenyl]imidazo[1,2-c]pyrimidin-7-yl}benzonitrile], with not above 50 nM. The same measure for `Cc1ccc(-c2c(-c3ccc(C#N)cc3)nc(N3CCC(N(C)C)CC3)n3ccnc23)c(CO)c1` [Example 111, 4-{5-[4-(dimethylamino)piperidin-1-yl]-8-[2-(hydroxymethyl)-4-methylphenyl]imidazo[1,2-c]pyrimidin-7-yl}benzonitrile]: not above 50 nM; for `Cc1ccc(-c2c(-c3ccc(C#N)cc3)nc(N3CCC(N(C)C)CC3)n3ccnc23)cn1` [Example 112, 4-[5-[4-(dimethylamino)piperidin-1-yl]-8-(6-methylpyridin-3-yl)imidazo[1,2-c]pyrimidin-7-yl]benzonitrile]: 50 to 500 nM. Compound `Cc1ncc(-c2c(-c3ccc(C#N)cc3)nc(N3CCC(N(C)C)CC3)n3ccnc23)cc1F` [Example 113, 4-[5-[4-(dimethylamino)piperidin-1-yl]-8-(5-fluoro-6-methylpyridin-3-yl)imidazo[1,2-c]pyrimidin-7-yl]benzonitrile] had an IC50 not above 50 nM. As to `CN(C)C1CCN(c2nc(-c3ccc(C#N)cc3)c(-c3ccc(N(C)S(C)(=O)=O)nc3)c3nccn23)CC1` [Example 115, N-(5-{7-(4-cyanophenyl)-5-[4-(dimethylamino)piperidin-1-yl]imidazo[1,2-c]pyrimidin-8-yl}pyridin-2-yl)-N-methylmethanesulfonamide], the IC50 is not above 50 nM. `CCOc1ccc(-c2c(-c3ccc(C#N)cc3)nc(N3CCC(N(C)C)CC3)n3ccnc23)cn1` [Example 117, 4-[5-[4-(dimethylamino)piperidin-1-yl]-8-(6-ethoxypyridin-3-yl)imidazo[1,2-c]pyrimidin-7-yl]benzonitrile] had an IC50 not above 50 nM. Then `CC(C)c1ccc(-c2c(-c3ccc(C#N)cc3)nc(N3CCC(N(C)C)CC3)n3ccnc23)cn1` [Example 118, 4-[5-[4-(dimethylamino)piperidin-1-yl]-8-(6-isopropylpyridin-3-yl)imidazo[1,2-c]pyrimidin-7-yl]benzonitrile], with 50 to 500 nM. Consider `CCN1CCC[C@@H](COc2nc(-c3ccc(C#N)cc3)c(-c3ccc(C)cc3CO)c3nccn23)C1` [Example 119, 4-{5-{[(3R)-1-ethylpiperidin-3-yl]methoxy}-8-[2-(hydroxymethyl)-4-methylphenyl]imidazo[1,2-c]pyrimidin-7-yl}benzonitrile], for which the IC50 was in the range of 50 to 500 nM. `CN(C)C1CCN(c2nc(-c3ccc(C#N)cc3)c(-c3ccc4scnc4c3)c3nccn23)CC1` [Example 120, 4-{8-(1,3-benzothiazol-5-yl)-5-[4-(dimethylamino)piperidin-1-yl]imidazo[1,2-c]pyrimidin-7-yl}benzonitrile] yielded an IC50 not above 50 nM. `CN(C)C1CCN(c2nc(-c3ccc(C#N)cc3)c(-c3ccc4c(c3)C(O)CC4)c3nccn23)CC1` (stereo not drawn) [Example 121, 4-[5-[4-(dimethylamino)piperidin-1-yl]-8-(3-hydroxy-2,3-dihydro-1H-inden-5-yl)imidazo[1,2-c]pyrimidin-7-yl]benzonitrile] registered an IC50 not above 50 nM. In turn, `CN(C)C1CCN(c2nc(-c3ccc(C#N)cc3)c(-c3ccc4c(c3)CC(O)C4)c3nccn23)CC1` (stereo not drawn) [Example 122, 4-[5-[4-(dimethylamino)piperidin-1-yl]-8-(2-hydroxy-2,3-dihydro-1H-inden-5-yl)imidazo[1,2-c]pyrimidin-7-yl]benzonitrile] yielded an IC50 not above 50 nM.

Take `CN1CCC[C@@H](COc2nc(-c3ccc(C#N)cc3)c(-c3ccc4c(c3)C(O)CC4)c3nccn23)C1` (stereo partly drawn) [Example 123, 4-(8-(3-hydroxy-2,3-dihydro-1H-inden-5-yl)-5-{[(3R)-1-methylpiperidin-3-yl]methoxy}imidazo[1,2-c]pyrimidin-7-yl)benzonitrile]: the IC50 is not above 50 nM. `CN1CCC[C@@H](COc2nc(-c3ccc(C#N)cc3)c(-c3ccc4c(c3)CC(O)C4)c3nccn23)C1` (stereo partly drawn) [Example 124, 4-(8-(2-hydroxy-2,3-dihydro-1H-inden-5-yl)-5-{[(3R)-1-methylpiperidin-3-yl]methoxy}imidazo[1,2-c]pyrimidin-7-yl)benzonitrile] gave an IC50 not above 50 nM. In turn, `CN(C)C1CCN(c2nc(-c3ccc(C#N)cc3)c(-c3cnc4c(ccn4C)c3)c3nccn23)CC1` [Example 125, 4-[5-[4-(dimethylamino)piperidin-1-yl]-8-(1-methyl-1H-pyrrolo[2,3-b]pyridin-5-yl)imidazo[1,2-c]pyrimidin-7-yl]benzonitrile] gave an IC50 not above 50 nM. As to `CN(C)C1CCN(c2nc(-c3ccc(C#N)cc3)c(-c3ccc4nccnc4c3)c3nccn23)CC1` [Example 126, 4-{5-[4-(dimethylamino)piperidin-1-yl]-8-quinoxalin-6-ylimidazo[1,2-c]pyrimidin-7-yl}benzonitrile], the IC50 lay in the range of 50 to 500 nM. For the compound `CN(C)C1CCN(c2nc(-c3ccc(C#N)cc3)c(-c3ccc4c(c3F)n(C)c(=O)n4C)c3nccn23)CC1` [Example 127, 4-[5-[4-(dimethylamino)piperidin-1-yl]-8-(4-fluoro-1,3-dimethyl-2-oxo-2,3-dihydro-1H-benzimidazol-5-yl)imidazo[1,2-c]pyrimidin-7-yl]benzonitrile], the IC50 was not above 50 nM. With `CN(C)C1CCN(c2nc(-c3ccc(C#N)cc3)c(-c3cc(F)c4c(c3)n(C)c(=O)n4C)c3nccn23)CC1` [Example 128, 4-[5-[4-(dimethylamino)piperidin-1-yl]-8-(7-fluoro-1,3-dimethyl-2-oxo-2,3-dihydro-1H-benzimidazol-5-yl)imidazo[1,2-c]pyrimidin-7-yl]benzonitrile], the IC50 was not above 50 nM. Regarding `CN(C)C1CCN(c2nc(-c3ccc(C#N)cc3)c(-c3cc4c(cc3F)n(C)c(=O)n4C)c3nccn23)CC1` [Example 129, 4-[5-[4-(dimethylamino)piperidin-1-yl]-8-(6-fluoro-1,3-dimethyl-2-oxo-2,3-dihydro-1H-benzimidazol-5-yl)imidazo[1,2-c]pyrimidin-7-yl]benzonitrile], the IC50 is not above 50 nM.

`CN1C(=O)CCc2cc(-c3c(-c4ccc(C#N)cc4)nc(N4CCC(N(C)C)CC4)n4ccnc34)ccc21` [Example 130, 4-[5-[4-(dimethylamino)piperidin-1-yl]-8-(1-methyl-2-oxo-1,2,3,4-tetrahydroquinolin-6-yl)imidazo[1,2-c]pyrimidin-7-yl]benzonitrile] gave an IC50 not above 50 nM. Regarding `CN1C(=O)CCc2ccc(-c3c(-c4ccc(C#N)cc4)nc(N4CCC(N(C)C)CC4)n4ccnc34)cc21` [Example 131, 4-[5-[4-(dimethylamino)piperidin-1-yl]-8-(1-methyl-2-oxo-1,2,3,4-tetrahydroquinolin-7-yl)imidazo[1,2-c]pyrimidin-7-yl]benzonitrile], the IC50 was in the range of 50 to 500 nM.
